{
  "source": "patent US12576030B2",
  "about": "“Compositions for delivery of codon-optimized mRNA” (Translate Bio, Inc., priority 2020, dated 2026)",
  "test_system": "male CD1 mice",
  "assay": "Luciferase radiance in lung after pulmonary delivery of FFL mRNA-LNPs",
  "assay_type": "in vivo",
  "details": "for potency as determined by the average radiance detected in mouse lungs: FFL mRNA-LNP, single intratracheal administration via nebulization, about 5 hours post-dose",
  "method": "About 150 cationic lipids were tested. (FIG. 7). Each cationic lipid was used in preparing lipid nanoparticles encapsulating mRNA encoding firefly luciferase protein (FFL mRNA) according to methods known in the art. For example, suitable methods for mRNA encapsulation include methods described in International Publication Nos. WO2016/004318 and WO 2018/089801, which is hereby incorporated by reference in its entirety. The tested lipid nanoparticles comprised a lipid component consisting of a cationic lipid, a non-cationic lipid (DOPE), a PEG-modified lipid (DMG-PEG2K), and optionally cholesterol.\nLipid nanoparticle formulations comprising FFL mRNA were administered to male CD1 mice by a single intratracheal administration via nebulization using a Microsprayer®. At approximately 5 hours post-dose, the animals were dosed with luciferin by intraperitoneal injection and all animals were imaged using an IVIS imaging system to measure luciferase production in the lung. […] Some cationic lipids remarkably had greater than 50-fold increase in pulmonary protein expression as compared to other cationic lipids.",
  "note": "“Also recorded” adds a separate entry of the source.",
  "data": [
    {"compound": "CCCCC/C=C\\C/C=C\\CCCCCCCC(=O)OCC(COC(=O)CCCCCCC/C=C\\C/C=C\\CCCCC)(COC(=O)CCCCCCC/C=C\\C/C=C\\CCCCC)NCCS(=O)(=O)NCCN(C)C", "note": "[GL-TES-SA-DME-E18-2, 2-((2-(N-(2-(dimethylamino)ethyl)sulfamoyl)ethyl)amino)-2-((((9Z,12Z)-octadeca-9,12-dienoyl)oxy)methyl)propane-1,3-diyl (9Z,9′Z,12Z,12′Z)-bis(octadeca-9,12-dienoate)]", "values": [
      {"measurement": "potency as determined by the average radiance detected in mouse lungs", "result": "performed particularly well; also recorded: particularly high potency"}
    ]},
    {"compound": "CCCCC/C=C\\C/C=C\\CCCCCCCC(=O)OCC(COC(=O)CCCCCCC/C=C\\C/C=C\\CCCCC)(COC(=O)CCCCCCC/C=C\\C/C=C\\CCCCC)NCCS(=O)(=O)NCCCN(C)C", "note": "[GL-TES-SA-DMP-E18-2]", "values": [
      {"measurement": "potency as determined by the average radiance detected in mouse lungs", "result": "performed particularly well; also recorded: particularly high potency"}
    ]},
    {"compound": "CCCCCCCCC(O)CN(CCCC(=O)OCCN1CC(C)N(CCOC(=O)CCCN(CC(O)CCCCCCCC)CC(O)CCCCCCCC)CC1C)CC(O)CCCCCCCC", "note": "(centres unmarked) [HEP-E3-E10]", "values": [
      {"measurement": "potency as determined by the average radiance detected in mouse lungs", "result": "performed particularly well"},
      {"measurement": "potency as determined by the average radiance detected in mouse lungs", "setting": "listed as REP-E3-E10", "result": "particularly high potency"}
    ]},
    {"compound": "CCCCCCCCC(O)CN(CCCCC(=O)OCCN1CC(C)N(CCOC(=O)CCCCN(CC(O)CCCCCCCC)CC(O)CCCCCCCC)CC1C)CC(O)CCCCCCCC", "note": "(centres unmarked) [HEP-E4-E10]", "values": [
      {"measurement": "potency as determined by the average radiance detected in mouse lungs", "result": "performed particularly well; also recorded: particularly high potency"}
    ]},
    {"compound": "CC(C)CCCC(C)C1CCC2C3CC=C4CC(OC(=O)CCc5cnc[nH]5)CCC4(C)C3CCC12C", "note": "(centres unmarked) [ICE, imidazole cholesterol ester, reference compound]", "values": [
      {"measurement": "historical radiance/expression of pulmonary-delivered FFL mRNA in LNP", "setting": "LNP comprising the named cationic lipid, pulmonary-delivered (e.g., nebulized)", "result": "around 10^4 p/s/cm^2sr"}
    ]},
    {"compound": "CCCCCCCCOC(=O)CC(CC(=O)OCCCCCCCC)(OC(=O)CCN(C)C)C(=O)OCCCCCCCC", "note": "[TL1-01D-DMA, trioctyl 2-((3-(dimethylamino)propanoyl)oxy)propane-1,2,3-tricarboxylate]", "values": [
      {"measurement": "potency as determined by the average radiance detected in mouse lungs", "result": "performed particularly well; also recorded: particularly high potency"}
    ]},
    {"compound": "CCCCCCCCCCCCCCOC(=O)CC(CC(=O)OCCCCCCCCCCCCCC)(OC(=O)CCN(C)C)C(=O)OCCCCCCCCCCCCCC", "note": "[TL1-04D-DMA]", "values": [
      {"measurement": "potency as determined by the average radiance detected in mouse lungs", "result": "performed particularly well; also recorded: particularly high potency"}
    ]}
  ]
}
